Patent publication US20100298141A1, “SUBSTITUTED PYRIDINE N-OXIDE HERBICIDES” (E. I. DU PONT DE NEMOURS AND COMPANY, priority 2007, published 2010)

Assays:
giant foxtail [1] = assay: Test A pre-/postemergence greenhouse test; type: in vivo, Setaria faberi; settings: for Foxtail, Giant plant response rating: 0 to 100 scale; for Plant response rating, Foxtail, Giant: 0 to 100 scale where 0 is no effect and 100 is complete control
In short: (§1)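 Untreated controls served as the reference for visual injury ratings taken about ten days after spraying. The non-phytotoxic solvent/surfactant formulation was applied preemergence to seeded loam and sand and postemergence to plants two to ten cm high.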

velvetleaf = assay: Test A pre-/postemergence greenhouse test; type: in vivo, Abutilon theophrasti; settings: for Velvetleaf plant response rating: 0 to 100 scale; for Plant response rating, Velvetleaf: 0 to 100 scale where 0 is no effect and 100 is complete control
In short: as §1

wheat = assay: Test A pre-/postemergence greenhouse test; type: in vivo, Triticum aestivum; settings: for Wheat plant response rating: 0 to 100 scale; for Plant response rating, Wheat: 0 to 100 scale where 0 is no effect and 100 is complete control
In short: as §1

corn = assay: Test A pre-/postemergence greenhouse test; type: in vivo, Zea mays; settings: for Corn plant response rating: 0 to 100 scale; for Plant response rating, Corn: 0 to 100 scale where 0 is no effect and 100 is complete control
In short: as §1

downy brome = assay: Test C pre-/postemergence test; type: in vivo, Bromus tectorum; settings: for Plant response rating (0 to 100), Bromegrass, Downy: 250 g ai/ha
In short: (§2)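 Test chemicals were formulated with surfactant in a non-phytotoxic solvent and sprayed both on freshly planted seeds (preemergence) and on 1- to 4-leaf plants of 2–18 cm (postemergence). Flooded-paddy pots received compound directly into 3 cm of standing water, maintained for the test.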

catchweed bedstraw = assay: Test C pre-/postemergence test; type: in vivo, Galium aparine; settings: for Plant response rating (0 to 100), Galium: 250 g ai/ha
In short: as §2

bermudagrass = assay: Test C pre-/postemergence test; type: in vivo, Cynodon dactylon; settings: for Plant response rating (0 to 100), Bermudagrass: 250 g ai/ha
In short: as §2

Surinam grass = assay: Test C pre-/postemergence test; type: in vivo, Brachiaria decumbens
In short: as §2

crabgrass = assay: Test C pre-/postemergence test; type: in vivo, Digitaria sanguinalis; settings: for Plant response rating (0 to 100), Crabgrass, Large: 250 g ai/ha
In short: as §2

giant foxtail [2] = assay: Test C pre-/postemergence test; type: in vivo, Setaria faberii; settings: for Plant response rating (0 to 100), Foxtail, Giant: 250 g ai/ha
In short: as §2

johnsongrass = assay: Test C pre-/postemergence test; type: in vivo, Sorghum halepense; settings: for Plant response rating (0 to 100), Johnsongrass: 250 g ai/ha
In short: as §2

lambsquarters = assay: Test C pre-/postemergence test; type: in vivo, Chenopodium album
In short: as §2

morningglory = assay: Test C pre-/postemergence test; type: in vivo, Ipomoea coccinea
In short: as §2

pigweed = assay: Test C pre-/postemergence test; type: in vivo, Amaranthus retroflexus
In short: as §2

soybean = assay: Test C pre-/postemergence test; type: in vivo, Glycine max
In short: as §2

rice = assay: Test C flooded paddy test; type: in vivo, Oryza sativa; settings: Flood
In short: (§3)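 Compound was added to standing water 3 cm above soil, flood maintained, and plants held in a greenhouse before visual scoring against controls at 13 to 15 days.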

barnyardgrass = assay: Test C flooded paddy test; type: in vivo, Echinochloa crus-galli; settings: Flood
In short: as §3

[3] = Postemergence, 125 g ai/ha, 0 is no effect, 100 is complete control
[4] = Postemergence, 500 g ai/ha, 0 is no effect, 100 is complete control
[5] = Preemergence, 125 g ai/ha, 0 no effect, 100 complete control
[6] = 31 g ai/ha, Preemergence, scale 0 to 100
[7] = 62 g ai/ha, preemergence, scale 0 (no effect) to 100 (complete control)
[8] = preemergence, 125 g ai/ha, scale 0 (no effect) to 100 (complete control)
[9] = 31 g ai/ha, scale 0 to 100 (0 no effect, 100 complete control)
[10] = 62 g ai/ha, scale 0 to 100, 0 no effect, 100 complete control, 13 to 15 days
[11] = 125 g ai/ha, scale 0 to 100, 0 no effect, 100 complete control, 13 to 15 days
[12] = 250 g ai/ha, scale 0 to 100 (0 no effect, 100 complete control)
[13] = 62 g ai/ha, Preemergence, scale 0 to 100
[14] = Preemergence, 31 g ai/ha, scale 0 to 100 (0 no effect, 100 complete control)
[15] = 250 g ai/ha, scale 0 to 100, 0 no effect, 100 complete control, 13 to 15 days

Cn1nc(C(F)(F)F)c(CS(=O)(=O)c2ccc(Cl)c[n+]2[O-])c1OC(F)F [Compound 7]
85: Galium plant response rating (catchweed bedstraw; [7])
70: Foxtail, Giant plant response rating (giant foxtail [1]; [4]) | Plant response rating (0 to 100), Surinam Grass (Surinam grass; Preemergence, 250 g ai/ha)
40: Galium plant response rating (catchweed bedstraw; [6])
50: Plant response rating, Wheat (wheat; Preemergence, 500 g ai/ha) | Foxtail, Giant plant response rating (giant foxtail [2]; [6]) | Foxtail, Giant plant response rating (giant foxtail [2]; [7])
20: Velvetleaf plant response rating (velvetleaf; [4]) | Wheat plant response rating (wheat; [4]) | Wheat plant response rating (wheat; [5]) | Corn plant response rating (corn; [4]) | Surinam Grass plant response rating (Surinam grass; [7]) | Plant response rating, Barnyardgrass (barnyardgrass; [12])
0: Velvetleaf plant response rating (velvetleaf; [3]) | Wheat plant response rating (wheat; [3]) | Bromegrass, Downy plant response rating (downy brome; [6]) | Bromegrass, Downy plant response rating (downy brome; [7]) | Plant response rating (0 to 100), Bromegrass, Downy (downy brome; Preemergence) | Bromegrass, Downy plant response rating (downy brome; [8]) | Lambsquarters plant response rating (lambsquarters; [6]) | Lambsquarters plant response rating (lambsquarters; [7]) | Morningglory plant response rating (morningglory; [6]) | Morningglory plant response rating (morningglory; [7]) | Plant response rating (0 to 100), Morningglory (morningglory; Preemergence, 250 g ai/ha) | Morningglory plant response rating (morningglory; [8]) | Soybean plant response rating (soybean; [6]) | Soybean plant response rating (soybean; [7]) | Soybean plant response rating (soybean; [8]) | Plant response rating, Rice (rice; [9]) | Plant response rating, Rice (rice; [10]) | Plant response rating, Barnyardgrass (barnyardgrass; [9]) | Plant response rating, Barnyardgrass (barnyardgrass; [10]) | Plant response rating, Barnyardgrass (barnyardgrass; [11])
95: Plant response rating (0 to 100), Galium (catchweed bedstraw; Preemergence)
90: Foxtail, Giant plant response rating (giant foxtail [1]; [5]) | Plant response rating, Foxtail, Giant (giant foxtail [1]; Preemergence, 500 g ai/ha) | Galium plant response rating (catchweed bedstraw; [8]) | Johnsongrass plant response rating (johnsongrass; [6])
30: Foxtail, Giant plant response rating (giant foxtail [1]; [3]) | Plant response rating, Velvetleaf (velvetleaf; Preemergence, 500 g ai/ha) | Plant response rating, Corn (corn; Preemergence, 500 g ai/ha) | Surinam Grass plant response rating (Surinam grass; [8]) | Plant response rating (0 to 100), Soybean (soybean; Preemergence, 250 g ai/ha)
80: Foxtail, Giant plant response rating (giant foxtail [2]; [8]) | Lambsquarters plant response rating (lambsquarters; [8])
100: Bermudagrass plant response rating (bermudagrass; [6]) | Bermudagrass plant response rating (bermudagrass; [7]) | Plant response rating (0 to 100), Bermudagrass (bermudagrass; Preemergence) | Bermudagrass plant response rating (bermudagrass; [8]) | Crabgrass, Large plant response rating (crabgrass; [6]) | Crabgrass, Large plant response rating (crabgrass; [7]) | Plant response rating (0 to 100), Crabgrass, Large (crabgrass; Preemergence) | Crabgrass, Large plant response rating (crabgrass; [8]) | Plant response rating (0 to 100), Foxtail, Giant (giant foxtail [2]; Preemergence) | Johnsongrass plant response rating (johnsongrass; [7]) | Plant response rating (0 to 100), Johnsongrass (johnsongrass; Preemergence) | Johnsongrass plant response rating (johnsongrass; [8]) | Plant response rating (0 to 100), Lambsquarters (lambsquarters; Preemergence, 250 g ai/ha) | Pigweed plant response rating (pigweed; [6]) | Pigweed plant response rating (pigweed; [7]) | Plant response rating (0 to 100), Pigweed (pigweed; Preemergence, 250 g ai/ha) | Pigweed plant response rating (pigweed; [8])
15: Plant response rating, Rice (rice; [11]) | Plant response rating, Rice (rice; [12])

CC(c1c(C(F)(F)F)nn(C)c1OCC(F)(F)F)S(=O)(=O)c1cccc[n+]1[O-] (racemic) [Compound 33]
90: Foxtail, Giant plant response rating (giant foxtail [1]; [3]) | Foxtail, Giant plant response rating (giant foxtail [1]; [4]) | Plant response rating, Lambsquarters (lambsquarters; [14])
20: Bromegrass, Downy plant response rating (downy brome; [13])
80: Plant response rating, Corn (corn; Preemergence, 500 g ai/ha) | Plant response rating, Surinam Grass (Surinam grass; [14]) | Plant response rating, Barnyardgrass (barnyardgrass; [15])
100: Foxtail, Giant plant response rating (giant foxtail [1]; [5]) | Plant response rating, Foxtail, Giant (giant foxtail [1]; Preemergence, 500 g ai/ha) | Plant response rating, Velvetleaf (velvetleaf; Preemergence, 500 g ai/ha) | Plant response rating, Wheat (wheat; Preemergence, 500 g ai/ha) | Galium plant response rating (catchweed bedstraw; [13]) | Plant response rating, Galium (catchweed bedstraw; [14]) | Plant response rating (0 to 100), Galium (catchweed bedstraw; Preemergence) | Bermudagrass plant response rating (bermudagrass; 62 g ai/ha, Preemergence, scale 0 to 100 (0 no effect, 100 complete control)) | Plant response rating, Bermudagrass (bermudagrass; [14]) | Plant response rating (0 to 100), Bermudagrass (bermudagrass; Preemergence) | Bermudagrass plant response rating (bermudagrass; [8]) | Surinam Grass plant response rating (Surinam grass; [13]) | Crabgrass, Large plant response rating (crabgrass; [13]) | Plant response rating, Crabgrass, Large (crabgrass; [14]) | Plant response rating (0 to 100), Crabgrass, Large (crabgrass; Preemergence) | Foxtail, Giant plant response rating (giant foxtail [2]; [13]) | Plant response rating (0 to 100), Foxtail, Giant (giant foxtail [2]; Preemergence) | Johnsongrass plant response rating (johnsongrass; [13]) | Plant response rating (0 to 100), Johnsongrass (johnsongrass; Preemergence) | Lambsquarters plant response rating (lambsquarters; [13]) | Morningglory plant response rating (morningglory; [13]) | Plant response rating, Morningglory (morningglory; [14]) | Pigweed plant response rating (pigweed; [13]) | Plant response rating, Pigweed (pigweed; [14])
30: Plant response rating, Rice (rice; [11]) | Plant response rating, Barnyardgrass (barnyardgrass; [9]) | Plant response rating, Barnyardgrass (barnyardgrass; [10]) | Plant response rating, Barnyardgrass (barnyardgrass; [11])
50: Corn plant response rating (corn; [3])
98: Plant response rating (0 to 100), Bromegrass, Downy (downy brome; Preemergence) | Plant response rating, Foxtail, Giant (giant foxtail [2]; [14]) | Plant response rating, Johnsongrass (johnsongrass; [14])
75: Plant response rating, Rice (rice; [15])
0: Plant response rating, Bromegrass, Downy (downy brome; [14]) | Plant response rating, Rice (rice; [9]) | Plant response rating, Rice (rice; [10])
60: Velvetleaf plant response rating (velvetleaf; [4]) | Wheat plant response rating (wheat; [3]) | Wheat plant response rating (wheat; [5]) | Soybean plant response rating (soybean; [13])
40: Velvetleaf plant response rating (velvetleaf; [3])
70: Velvetleaf plant response rating (velvetleaf; [5]) | Wheat plant response rating (wheat; [4]) | Corn plant response rating (corn; [4]) | Corn plant response rating (corn; [5]) | Bromegrass, Downy plant response rating (downy brome; [8])
